Reference: patent US12102432B2, “Uses of transdermal glomerular filtration rate measurement in continuous renal replacement therapy” (MediBeacon Inc., priority 2018, dated 2024)

Assay: In vivo clearance by CVVH in porcine model with bilateral nephrectomy
Parameters: species or system Swine
Protocol: Swine (3 male and 3 female, for both CVVH and CVVHD modalities) weighing 35-40 kg were used. In this model, a total functional nephrectomy was achieved by ligation of all renal arteries. Animals were inspected by professional veterinary staff within 48 hours of arrival. Any underlying infections or parasitism was treated based on veterinary recommendations.
Prior to study, the animals were fasted overnight (with water ad libitum) to reduce the risk of aspiration. On the morning of the study, animals were sedated with an intramuscular injection of Telazol/Xylazine (or a Ketamine/xylazine combination) at recommended doses and transported to the operating theatre. Pigs were then anesthetized via inhalation of 5% isoflurane in oxygen via mask. A catheter was placed in the marginal ear vein to provide immediate venous access for further medications and IV fluids.
Pigs were orotracheally intubated and the isoflurane concentration reduced to 1%-3% to maintain anesthesia for the duration of the experiment. Pigs were mechanically ventilated using a tidal volume of 10 mL/kg and respiratory rate adjusted to keep a P(CO2) of 40±2 mmHg. A three lead electrocardiogram was used to monitor heart rate and rhythm. Core body temperature was measured with a rectal thermistor probe and maintained at 37-39° C. with the use of a circulating water blanket.
Hair was removed from the ventral neck, abdominal and/or the femoral regions, and these sites were prepared for aseptic surgery. Lidocaine was injected at incision site(s). When a surgical plane of anesthesia was reached, the right carotid artery was approached via cut down incision and cannulated for continuous blood pressure monitoring. This facilitated withdrawal of blood samples for the study and for the determination of respiratory gases, acid-base status and glucose concentration. A catheter was placed in the right jugular/femoral vein to infuse medications or replacement fluids and an 11 Fr hemodialysis catheter was placed into the left jugular vein for both CVVH and CVVHD procedures.
The abdomen was then opened via a midline laparotomy. The renal hilum was identified, and ties were placed around the renal artery or arteries: for partial or total ligation as dictated by study requirements (full-function nephrectomy via total ligation of all renal arteries, and full-function nephrectomy of one kidney and partial ligation of the second kidney). Perivascular flow probes were placed around the proximal renal artery of the kidneys in situ, as required. […] A purse-sting suture was placed in the urinary bladder and a small cystotomy incision was performed to advance a Foley catheter for urine collection and quantification, as required.
Due to the length of time of study, the abdomen was closed in 2-3 layers with appropriate suture material to prevent desiccation of tissues. Suture patterns allowed for external extension of tubing and flow probe lines for equipment attachment as required. Following complete instrumentation, the pig was stabilized. Vital signs were monitored continuously and, once stable, either the CVVH and CVVHD experiment was initiated.
After taking a pre-MB-102 blood sample (baseline), a dose of 6 mg/kg of MB-102 was injected as a single bolus, followed by a 90 minute period of equilibration, to allow for MB-102 systemic redistribution (see FIGS. 7 and 13 for equilibration of fluorescent signal detected by the renal monitoring assembly). Thirty minutes after the MB-102 injection, Meropenum was infused for 30 minutes, which reached a peak concentration in blood ˜1 hr after the start of the infusion. After drug equilibration, CRRT was initiated (either CVVH or CVVHD) at a blood flow rate (BFR) of 100 mL/min with corresponding 20 mL/kg/hr effluent rate during a time-course of 90 minutes (with collections at 0, 30, 60, 90 minutes). […]

[1] = assembly on chest (QLS26), blood flow rate 100, effluent flow rate 20 mL/min, 1st of four regions
[2] = assembly on chest (QLS26), blood flow rate 100, effluent flow rate 20 mL/min, 3rd of four regions
[3] = assembly on chest (QLS26), blood flow rate 200, effluent flow rate 35 mL/min, 2nd of four regions
[4] = assembly on chest (QLS26), blood flow rate 200, effluent flow rate 35 mL/min, 4th of four regions
[5] = assembly on sternum (QLS25), blood flow rate 100, effluent flow rate 20 mL/min, 1st of four regions
[6] = assembly on sternum (QLS25), blood flow rate 100, effluent flow rate 20 mL/min, 3rd of four regions
[7] = assembly on sternum (QLS25), blood flow rate 200, effluent flow rate 35 mL/min, 2nd of four regions
[8] = assembly on sternum (QLS25), blood flow rate 200, effluent flow rate 35 mL/min, 4th of four regions

Nc1nc(C(=O)N[C@H](CO)C(=O)O)c(N)nc1C(=O)N[C@H](CO)C(=O)O [MB-102, (2R,2′R)-2,2′-((3,6-diaminopyrazine-2,5-dicarbonyl)bis(azanediyl))bis(3-hydroxypropanoic acid)]
MB-102 Clearance Rate Constant [1]: 0.1129 h⁻¹
RDTC [1]: 8.86 h
MB-102 Clearance Rate Constant [2]: 0.0879 h⁻¹
RDTC [2]: 11.38 h
MB-102 Clearance Rate Constant [3]: 0.1314 h⁻¹
RDTC [3]: 7.61 h
MB-102 Clearance Rate Constant [4]: 0.1308 h⁻¹
RDTC [4]: 7.64 h
MB-102 Clearance Rate Constant [5]: 0.1145 h⁻¹
RDTC [5]: 8.73 h
MB-102 Clearance Rate Constant [6]: 0.0763 h⁻¹
RDTC [6]: 13.11 h
MB-102 Clearance Rate Constant [7]: 0.145 h⁻¹
RDTC [7]: 6.90 h
MB-102 Clearance Rate Constant [8]: 0.1238 h⁻¹
RDTC [8]: 8.08 h
